Assay results from patent US20240189435A1, “NOVEL PEPTIDE-OLIGONUCLEOTIDE CONJUGATE AND USE THEREOF” (KOREA INSTITUTE OF SCIENCE AND TECHNOLOGY, priority 2021, published 2024).

How the values were obtained:
miRNA-21 [1] = experiment: RT-PCR of miRNA-21 in B16 cells; format: cell-based; conditions: 300 nM, 18 hours
Method: (1) Real-time polymerase chain reaction (RT-PCR) was performed to determine whether or not miRNA-21 expression was inhibited by treatment with Pep-21. B16 cells were treated with 300 nM of Pep-21 for 18 hours, RNA was isolated, cDNA was synthesized, and then real-time polymerase chain reaction (RT-PCR) was performed using miRNA-21 primer.

B16 cells [2] = experiment: Cytotoxicity in B16 cells, cell counting Kit-8 (CCK-8); format: cell-based; conditions: 300 nM, 24 hours
Method: (2) To determine the cytotoxicity of this substance, B16 cells were treated with 300 nM Pep-21 for 24 hours and the cytotoxicity was confirmed using cell counting Kit-8 (CCK-8).

[3] = tested on: matrix metalloproteinase-2 (MMP2); experiment: Western blot in B16 cells, MMP2; format: cell-based; conditions: 300 nM, serum free media, 24 hours
Method: (§1) B16 cells were treated with 300 nM Pep-21 in serum free media for 24 hours, protein assay was performed and western blot was performed.
(§2) miRNA-21 related markers: programmed cell death 4 (PDCD4), matrix metalloproteinase-2 (MMP2), tissue inhibitor of metalloproteinase-3 (TIMP3)

[4] = tested on: tissue inhibitor of metalloproteinase-3 (TIMP3); experiment: Western blot in B16 cells, TIMP3; format: cell-based; conditions: 300 nM, serum free media, 24 hours
Method: as §1, §2

IL-12 = experiment: RT-PCR of inflammatory cytokines in M2ϕ, IL-12; format: cell-based; conditions: 300 nM, 18 hours
Method: (§3) Real-time polymerase chain reaction (RT-PCR) was performed to determine whether or not treatment with Pep-21 inhibited the expression of miRNA-21. M2ϕ was treated with 300 nM of Pep-21 for 18 hours, RNA was isolated and then real-time polymerase chain reaction (RT-PCR) was performed.
(§4) In addition, the expression level of inflammatory cytokines was determined through RT-PCR.

[5] = tested on: programmed cell death 4 (PDCD4); experiment: Western blot in B16 cells, PDCD4; format: cell-based; conditions: 300 nM, serum free media, 24 hours
Method: as §1, §2

B16 cells [6] = experiment: Scratch-wound healing assay in B16 cells; format: cell-based; conditions: 300 nM in serum free media 48 hours, observed 72 hours after wounding, compared to the control group
Method: A scratch-wound healing assay was performed in order to analyze cell migration.
B16 cells were wounded using a 200 μL pipette tip, treated with 300 nM Pep-21 in serum free media for 48 hours, and then stabilized in fresh growth media for 24 hours.

iNOS (M1 marker) = experiment: Immunofluorescence of tumor-associated macrophages, iNOS; format: in vivo, mice; conditions: tumor-associated macrophages in excised tumor tissue, 21 days
Method: (§5) 21 days after the animal test, tumor-associated macrophages infiltrating the excised tumor tissue were analyzed by immunofluorescence (IF).

B16 melanoma = experiment: Anti-tumor effect in tumor animal model; format: in vivo, mice; conditions: 500 pmole intratumorally, 3 times at 3-day intervals, from day 12 after tumor inoculation
Description: (§6) On day 12 after tumor inoculation (tumor size of about 70 mm^3), PBS, peptide, Free-21, and Pep-21 were intratumorally injected three times at intervals of three days.

Arginasel (M2 marker) = experiment: Immunofluorescence of tumor-associated macrophages, Arginase1; format: in vivo, mice; conditions: tumor-associated macrophages in excised tumor tissue, 21 days
Method: as §5

miRNA-21 [7] = experiment: RT-PCR of miRNA-21 in M2ϕ; format: cell-based; conditions: 300 nM, 18 hours
Method: as §3

negative control miRNA = experiment: Agarose gel electrophoresis of sequence specificity with negative control miRNA; format: binding; conditions: 10 pmole in 100 μL PBS, 37° C., 1 hour
Method: (§7) Synthetic Pep-21 (10 pmole) was reacted with miRNA-21 and negative control miRNA in 100 μL of PBS under the same conditions as above, in other words, at 37° C. for 1 hour and then whether or not pep-21 recognizes and binds to a specific sequence of miRNA-21 was identified by agarose gel electrophoresis.
Whether or not Pep-21 recognizes and binds to a specific sequence to miRNA-21 was determined using the negative control miRNA.

miRNA-21 [8] = experiment: RT-PCR of miRNA-21 in treated cancer tissue; format: in vivo, mice; conditions: B16 tumor tissue, compared to the control group
Description: as §6

CD31 = CD31 immunofluorescence of excised tumor tissue; format: in vivo, mice; conditions: 21 days, compared to the control group
Method: (§8) 21 days after the animal test, the excised tumor tissue was analyzed by immunofluorescence.
In addition, immunofluorescence was performed using CD31, an angiogenesis marker.

[9] = tested on: M2ϕ (M2 bone marrow-derived macrophages); experiment: Cellular uptake in M2 bone marrow-derived macrophages, fluorescence microscopy; format: cell-based; conditions: 300 nM Cy5-labeled, 6 hours, compared to Free-21
miRNA-21 [10] = experiment: Agarose gel electrophoresis of binding to miRNA-21
Method: The binding affinity of miRNA-21 and Pep-21 was evaluated through agarose gel electrophoresis, compared to Free-21.
as §7

[11] = tested on: B16 melanoma tumor tissue; experiment: TUNEL assay on excised tumor tissue; format: in vivo, mice; conditions: 21 days, compared to the control group
Method: as §8
TUNEL assay was performed on tumor tissue to determine the degree of apoptosis.

B16 melanoma cells = experiment: Cellular uptake in B16 melanoma cells, fluorescence microscopy; format: cell-based; conditions: B16, 300 nM Cy5-labeled, 6 hours
Method: Melanoma cells (B16) were treated with 300 nM miRNA-21 labeled with Cy5 fluorescent dye for 6 hours and the degree of intracellular uptake was then observed with a fluorescence microscope.

TNF-α = experiment: RT-PCR of inflammatory cytokines in M2ϕ, TNF-α; format: cell-based; conditions: 300 nM, 18 hours
Method: as §3, §4

Q: “Pep-21: Azide PDL1-binding peptide (N3-NYSKPTDRQYHF, d-form) click-conjugated to DBCO-anti-miR-21 DNA 5′-TCAACATCAGTCTGATAAGCTA-3′” was tested. Which “expression of miRNA-21 (RT-PCR)” value (miRNA-21 [1]) did it give?
A: decreased the expression of miRNA-21

Q: What about the “cytotoxicity (CCK-8)” value (B16 cells [2]) of the same substance?
A: almost no cytotoxicity

Q: And the “MMP2 expression (western blot)” value [3]?
A: decreased

Q: What about the “Timp3 expression (western blot)” value [4] of the same substance?
A: increased

Q: What about the “mRNA expression of IL-12” value (IL-12) of the same substance?
A: promoted mRNA expression

Q: What about the “PDCD4 expression (western blot)” value [5] of the same substance?
A: increased

Q: What about the cancer cell migration (B16 cells [6]) of the same substance?
A: further inhibited

Q: What about the “iNOS (M1 marker) by IF” value (iNOS (M1 marker)) of the same substance?
A: increased

Q: What about the cancer growth (B16 melanoma) of the same substance?
A: inhibit cancer growth

Q: What about the “Arginasel (M2 marker) by IF” value (Arginasel (M2 marker)) of the same substance?
A: decreased

Q: What about the “expression of miRNA-21 (RT-PCR)” value (miRNA-21 [7]) of the same substance?
A: inhibited expression of miRNA-21

Q: And the “band shift upon reaction with Neg-miRNA” value (negative control miRNA)?
A: no band shift was observed

Q: What about the “amount of miRNA-21 expressed in cancer tissue (RT-PCR)” value (miRNA-21 [8]) of the same substance?
A: reduced compared to the control group

Q: What about the “CD31 (angiogenesis marker) expression” value (CD31) of the same substance?
A: decreased compared to the control group

Q: What about the “degree of uptake into cells” value [9] of the same substance?
A: successfully delivered anti-21 to the cytoplasm

Q: What about the “binding affinity to miRNA-21 (gel electrophoresis)” value (miRNA-21 [10]; 10 pmole annealed with miR-21 (0, 0.25, 0.5, 0.75 and 1) in 100 μL PBS, 37° C., 1 hour) of the same substance?
A: binding affinity increased as the concentration increased

Q: And the “band shift upon reaction with miRNA-21” value (miRNA-21 [10]; 10 pmole in 100 μL PBS, 37° C., 1 hour)?
A: a band shift was observed

Q: And the “sequence-specific recognition of miRNA-21 versus negative control miRNA” value (miRNA-21 [10]; conclusion from the band shift test)?
A: selectively binds to miRNA-21

Q: And the “degree of apoptosis (TUNEL)” value [11]?
A: increased compared to the control group

Q: And the “degree of intracellular uptake” value (B16 melanoma cells)?
A: greatly advantageous in intracellular delivery

Q: And the “cellular uptake when blocking with PD-L1 antibody” value (B16 melanoma cells; PD-L1 antibody blocking)?
A: cellular uptake decreased

Q: What about the “mRNA expression of TNF-α” value (TNF-α) of the same substance?
A: promoted mRNA expression
